Reference: US20230114728A1 (Venatorx Pharmaceuticals, Inc., priority 2019, published 2023)
pEC50: −log10 of the molar value. Values after ≈ are worked out from the molar mass of the structure shown. Where two headings read alike, the source gives them in different places.

Assays:
E. coli K12 PBP3 = target: T1, E. coli K12 PBP3 (Escherichia coli, UniProt P0AD68); assay: biochemical; assay type: binding
T1 construct: made in house
Method in brief: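 A. baumannii PBP2 (2.5 μM) and PBP3 (0.2 μM) were run in 25 mM Tris pH 8.0 buffer with Tween 20; E. coli PBP3 (1.5 μM) and N. gonorrhoeae PBP2 ([…]) in 50 mM Hepes pH 8.0 buffer.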

P. aeruginosa PBP3 = target: T2, P. aeruginosa PBP3 (Pseudomonas aeruginosa, UniProt G3XD46); assay: Bocillin-FL fluorescence polarization competition binding assay, P. aeruginosa PBP3; settings: fluorescence polarization competition binding assay using Bocillin-FL
T2 construct: made in house
Method in brief: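 Inhibitor competition with Bocillin-FL for P. aeruginosa PBP3 was followed by fluorescence polarization on a Cytation3 (BioTek) reader, using g-factor 0.96, 490 nm excitation and 520 nm emission. The enzyme was at 0.75 μM and the probe at 0.1 μM in Hepes/NaCl/glycerol buffer, 80 μl per well. FP was recorded immediately after probe addition for up to 60 minutes. Potency was expressed as EC50, the concentration that reduces bound probe by 50%.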

A. baumannii ATCC 19606 = assay: Broth microdilution MIC in CAMHB; assay type: cell-based; settings: Acinetobacter baumannii, ATCC19606; MHB; read-out: Minimum Inhibitory Concentration, A. baumannii ATCC 19606
Description: (§1) Example III: In Vitro Antibacterial Assays
(§2) To determine the ability of test compounds to inhibit the growth of bacterial strains, classic cell based broth microdilution minimum inhibitory concentration (MIC) assays were employed. MIC assays are performed according to CLSI methods except where otherwise noted (CLSI, 2018 and CLSI, 2019). The reference type strain E. coli ATCC 25922; the wild-type parent strain E. coli AG100; the hyper-permeable E. coli 901C and E. coli D22; and the E. coli AG100A strain lacking the acrAB efflux pump encoding genes were used to determine the ability of the PBP inhibitors to penetrate the outer membrane of gram-negative bacteria and inhibit bacterial growth. […] The P. aeruginosa ATCC 27853 and A. baumannii ATCC 19606, along with the hyper-permeable P. aeruginosa ATCC 35151 and an engineered efflux pump-compromised strain of P. aeruginosa (ΔmexAB-oprM) were used to determine the ability of PBP inhibitors to penetrate the outer membrane of P. aeruginosa and A. baumannii and assess antibacterial activity against these important gram-negative organisms.
(§3) Briefly, cryo-preserved bacterial cultures of challenge strains are streaked for isolation on appropriate agar medium, in this case cation-adjusted Mueller Hinton agar. Following incubation to allow growth of the colonies, plates are sealed with parafilm and stored refrigerated for up to two weeks. For preparation of assay inoculum and to ensure low variability, at least 5 colonies are picked from the agar plates with an inoculating loop and aseptically transferred to a culture tube containing 3 mL of cation-adjusted Mueller Hinton broth (CAMHB). The broth culture is grown for 3-5 hours at 37° C. with shaking at 200 rpm. Meanwhile, 2-fold serial dilutions of test compounds are conducted in a 96-well plate with a final volume of 75 μL per well at 2-fold the final desired concentration. After the dilution plates are set up the growing cultures are then diluted in a cuvette containing CAMHB and the optical density is measured at 600 nm. The inoculum is diluted such that 75 μL of this culture in CAMHB results in a starting bacterial concentration of 2-8×10^5 CFU/mL when added to the dilution plates. The plates are incubated for 16-20 hours for Enterobacteriaceae and Pseudomonas and 20-24 hours for Acinetobacter at 37° C. The MIC values are read visually as the lowest concentration well with no bacterial growth.

E. coli 901C = assay: Broth microdilution MIC in CAMHB; assay type: cell-based; settings: Escherichia coli, MHB, read-out: Minimum Inhibitory Concentration, E. coli 901C
Description: as §1, §2, §3

E. coli AG100A = assay: Broth microdilution MIC in CAMHB; assay type: cell-based; settings: Escherichia coli, read-out: Minimum Inhibitory Concentration, E. coli AG100A
Description: as §1, §2, §3

E. coli AG100 = assay: Broth microdilution MIC in CAMHB; assay type: cell-based; settings: Escherichia coli, MHB, read-out: Minimum Inhibitory Concentration, E. coli AG100
Description: as §1, §2, §3

E. coli ATCC 25922 = assay: Broth microdilution MIC in CAMHB; assay type: cell-based
Description: as §1, §2, §3

E. coli D22 = assay: Broth microdilution MIC in CAMHB; assay type: cell-based; settings: Escherichia coli, MHB, read-out: Minimum Inhibitory Concentration, E. coli D22
Description: as §1, §2, §3

[1] = tested on: K. pneumoniae 848844 producing SHV-11 and KPC-2; assay: Broth microdilution MIC in CAMHB; assay type: cell-based; settings: Klebsiella pneumoniae, read-out: Minimum Inhibitory Concentration, K. pneumoniae 848844
Description: as §1, §2, §3

[2] = tested on: K. pneumoniae SI-117 producing VIM-1; assay: Broth microdilution MIC in CAMHB; assay type: cell-based; settings: Klebsiella pneumoniae, read-out: Minimum Inhibitory Concentration, K. pneumoniae SI-117
Description: as §1, §2, §3

[3] = tested on: K. pneumoniae UMM producing SHV-5 and KPC-2; assay: Broth microdilution MIC in CAMHB; assay type: cell-based; settings: Klebsiella pneumoniae, read-out: Minimum Inhibitory Concentration, K. pneumoniae UMM
Description: as §1, §2, §3

[4] = tested on: P. aeruginosa (ΔmexAB-oprM); assay: Broth microdilution MIC in CAMHB; assay type: cell-based; settings: Pseudomonas aeruginosa, read-out: Minimum Inhibitory Concentration, P. aeruginosa ΔmexAB-OprM
Description: as §1, §2, §3

P. aeruginosa ATCC 27853 = assay: Broth microdilution MIC in CAMHB; assay type: cell-based; settings: Pseudomonas aeruginosa, ATCC27853; MHB; read-out: Minimum Inhibitory Concentration, P. aeruginosa ATCC 27853
Description: as §1, §2, §3

P. aeruginosa ATCC 35151 = assay: Broth microdilution MIC in CAMHB; assay type: cell-based; settings: Pseudomonas aeruginosa, ATCC35151; MHB; hyper-permeable strain; read-out: Minimum Inhibitory Concentration, P. aeruginosa ATCC 35151
Description: as §1, §2, §3

[5] = wild-type parent strain E. coli AG100
[6] = Escherichia coli, ATCC25922; MHB; E. coli ATCC 25922; read-out: Minimum Inhibitory Concentration, E. coli 25922
[7] = E. coli AG100 (wild-type parent)
[8] = Escherichia coli, ATCC25922; E. coli ATCC 25922; MHB; read-out: Minimum Inhibitory Concentration, E. coli 25922

T2 sequence (G3XD46 whole entry): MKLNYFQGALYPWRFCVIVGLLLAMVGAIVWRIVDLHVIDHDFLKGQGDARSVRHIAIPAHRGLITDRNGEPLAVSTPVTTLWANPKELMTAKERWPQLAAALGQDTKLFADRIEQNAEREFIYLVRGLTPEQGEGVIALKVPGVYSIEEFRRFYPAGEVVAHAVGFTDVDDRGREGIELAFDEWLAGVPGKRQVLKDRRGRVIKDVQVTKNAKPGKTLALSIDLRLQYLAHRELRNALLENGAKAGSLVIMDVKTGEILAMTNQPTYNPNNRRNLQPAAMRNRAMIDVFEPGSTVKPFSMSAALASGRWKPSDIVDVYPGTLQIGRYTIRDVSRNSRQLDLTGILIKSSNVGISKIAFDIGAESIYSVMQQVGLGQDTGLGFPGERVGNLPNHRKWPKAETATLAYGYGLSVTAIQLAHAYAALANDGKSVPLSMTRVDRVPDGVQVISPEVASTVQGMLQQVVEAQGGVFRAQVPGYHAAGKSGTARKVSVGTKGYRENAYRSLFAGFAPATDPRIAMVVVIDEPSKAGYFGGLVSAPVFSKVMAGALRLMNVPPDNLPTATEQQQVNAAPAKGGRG
T1 sequence (P0AD68 1-577): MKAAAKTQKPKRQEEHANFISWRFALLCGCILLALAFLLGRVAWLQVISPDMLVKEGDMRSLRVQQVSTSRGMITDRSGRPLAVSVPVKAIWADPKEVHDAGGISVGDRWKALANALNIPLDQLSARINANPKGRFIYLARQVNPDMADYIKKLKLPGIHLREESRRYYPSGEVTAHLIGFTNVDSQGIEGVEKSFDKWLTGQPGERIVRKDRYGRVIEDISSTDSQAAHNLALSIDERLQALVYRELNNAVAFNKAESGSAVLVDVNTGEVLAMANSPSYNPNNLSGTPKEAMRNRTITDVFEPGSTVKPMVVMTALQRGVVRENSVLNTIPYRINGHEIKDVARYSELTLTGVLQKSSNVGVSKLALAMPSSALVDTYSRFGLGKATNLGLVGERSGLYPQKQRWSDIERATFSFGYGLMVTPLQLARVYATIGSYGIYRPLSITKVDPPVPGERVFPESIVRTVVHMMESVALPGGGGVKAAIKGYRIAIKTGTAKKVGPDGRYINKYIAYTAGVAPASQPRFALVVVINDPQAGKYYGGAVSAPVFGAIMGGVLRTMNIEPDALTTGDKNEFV

Compound | pEC50 (E. coli K12 PBP3) | P. aeruginosa PBP3 Potency (P. aeruginosa PBP3) | MIC (A. baumannii ATCC 19606) [µg/mL] | MIC (E. coli 901C; hyper-permeable E. coli 901C) [µg/mL] | MIC (E. coli AG100A) [µg/mL] | MIC (E. coli AG100; [5]) [µg/mL] | MIC (E. coli ATCC 25922; [6]) [µg/mL] | MIC (E. coli D22; hyper-permeable E. coli D22) [µg/mL] | MIC [1] [µg/mL] | MIC [2] [µg/mL] | MIC [3] [µg/mL] | MIC [4] [µg/mL] | MIC (P. aeruginosa ATCC 27853) [µg/mL] | MIC (P. aeruginosa ATCC 35151) [µg/mL] | MIC (E. coli 901C; E. coli 901C (hyper-permeable)) [µg/mL] | MIC (E. coli AG100; [7]) [µg/mL] | MIC (E. coli ATCC 25922; [8]) [µg/mL] | MIC (E. coli D22; E. coli D22 (hyper-permeable)) [µg/mL]
C[C@H]1CN(CCF)C(=O)C(=O)N1C(=O)NC(C(=O)N[C@H]1Cc2cccc(C(=O)O)c2OB1O)c1c(F)cc(O)cc1F (stereo partly drawn) [Example 233, (3R)-3-(2-(2,6-difluoro-4-hydroxyphenyl)-2-((S)-4-(2-fluoroethyl)-6-methyl-2,3-dioxopiperazine-1-carboxamido)acetamido)-2-hydroxy-3,4-dihydro-2H-benzo[e][1,2]oxaborinine-8-carboxylic acid] | > 4.52 | D (D represents a potency <10 μM) | > 128 | 32 to 64 (≈ 54 to 108 µM) | 32 to 64 (≈ 54 to 108 µM) | 32 to 64 (≈ 54 to 108 µM) | 8 to 16 (≈ 13.5 to 27 µM) | 32 to 64 (≈ 54 to 108 µM) | 8 to 16 (≈ 13.5 to 27 µM) | 2 to 4 (≈ 3.38 to 6.75 µM) | < 0.25 | > 128 | > 128 | 8 to 16 (≈ 13.5 to 27 µM) | – | – | – | –
NS(=O)(=O)Nc1cccc([C@@H](NC(=O)N2CCN(CC(F)(F)F)C(=O)C2=O)C(=O)N[C@H]2Cc3cccc(C(=O)O)c3OB2O)c1 (single isomer, unassigned) [Example 217] | > 4.52 | D (D represents a potency <10 μM) | > 128 | – | 8 to 16 (≈ 12.2 to 24.4 µM) | – | – | – | > 128 | > 128 | 32 to 64 (≈ 48.8 to 97.5 µM) | 8 to 16 (≈ 12.2 to 24.4 µM) | > 128 | 2 to 4 (≈ 3.05 to 6.09 µM) | 0.5 to 1 (≈ 0.762 to 1.52 µM) | 32 to 64 (≈ 48.8 to 97.5 µM) | 32 to 64 (≈ 48.8 to 97.5 µM) | 2 to 4 (≈ 3.05 to 6.09 µM)
C[C@H]1CN(CCN)C(=O)C(=O)N1C(=O)NC(C(=O)N[C@H]1Cc2cccc(C(=O)O)c2OB1O)c1c(F)cc(O)cc1F (stereo partly drawn) [Example 234, (3R)-3-(2-((S)-4-(2-aminoethyl)-6-methyl-2,3-dioxopiperazine-1-carboxamido)-2-(2,6-difluoro-4-hydroxyphenyl)acetamido)-2-hydroxy-3,4-dihydro-2H-benzo[e][1,2]oxaborinine-8-carboxylic acid] | > 4.52 | D (D represents a potency <10 μM) | > 128 | 32 to 64 (≈ 54.3 to 109 µM) | 32 to 64 (≈ 54.3 to 109 µM) | 32 to 64 (≈ 54.3 to 109 µM) | 8 to 16 (≈ 13.6 to 27.2 µM) | 8 to 16 (≈ 13.6 to 27.2 µM) | 8 to 16 (≈ 13.6 to 27.2 µM) | 2 to 4 (≈ 3.39 to 6.79 µM) | 0.5 to 1 (≈ 0.848 to 1.7 µM) | 8 to 16 (≈ 13.6 to 27.2 µM) | > 128 | 2 to 4 (≈ 3.39 to 6.79 µM) | – | – | – | –
O=C(O)c1cccc2c1OB(O)[C@@H](NC(=O)[C@H](NC(=O)N1CCN(CC(F)(F)F)C(=O)C1=O)c1c(F)cc(O)cc1F)C2 (single isomer, unassigned) [Example 215] | > 4.52 | C (C represents a potency between 10 and 30 μM) | > 128 | – | 2 to 4 (≈ 3.26 to 6.51 µM) | – | – | – | > 128 | 32 to 64 (≈ 52.1 to 104 µM) | 32 to 64 (≈ 52.1 to 104 µM) | 32 to 64 (≈ 52.1 to 104 µM) | > 128 | 8 to 16 (≈ 13 to 26 µM) | < 0.25 | 32 to 64 (≈ 52.1 to 104 µM) | 32 to 64 (≈ 52.1 to 104 µM) | 2 to 4 (≈ 3.26 to 6.51 µM)
NS(=O)(=O)Nc1cccc([C@H](NC(=O)N2CCN(CC(F)(F)F)C(=O)C2=O)C(=O)N[C@H]2Cc3cccc(C(=O)O)c3OB2O)c1 (single isomer, unassigned) [Example 216] | 3.30 to 4.52 | C (C represents a potency between 10 and 30 μM) | > 128 | – | 32 to 64 (≈ 48.8 to 97.5 µM) | – | – | – | > 128 | > 128 | > 128 | 32 to 64 (≈ 48.8 to 97.5 µM) | > 128 | 8 to 16 (≈ 12.2 to 24.4 µM) | 2 to 4 (≈ 3.05 to 6.09 µM) | > 128 | > 128 | 8 to 16 (≈ 12.2 to 24.4 µM)
